Assay results published in PMC11227536, “Modulation of the Meisenheimer complex metabolism of nitro-benzothiazinones by targeted C-6 substitution” (Communications Chemistry, 2024).
In brackets after ≈: the same amount, converted by molar mass.

Experiments:
[1] = system: Mycobacterium smegmatis (JMRC:STH:00056); assay: MIC determination; format: cell-based; details: Mycolicibacterium smegmatis; n = 1
Experimental: Supplementary Method 5: Biological Assays
Minimal inhibitory concentrations were determined against Mycobacterium vaccae (JMRC:STI:10670) and Mycobacterium smegmatis (JMRC:STH:00056). M. vaccae and M. smegmatis cultures were grown 48 h at 32 °C in a medium consisting of glycerol (1%), beef extract (0.5%), peptone from casein (0.5%) and sodium chloride (0.3%). Serial dilutions of the DMSO test item solutions (1 mg∙mL -1) were prepared at 100 µL scale in 96 well plates in Mueller Hinton broth starting at 200 µg∙mL -1 (highest) to cover a final concentration range of 100 to 0.05 µg∙mL -1. Each plate was equipped with a series of DMSO and ciprofloxacin dilutions as quality controls. 96 well plates were inoculated with 100 µL diluted culture (Mueller Hinton bullion) at a final concentration of 5∙10 5 and incubated at 37 °C for 42 h. Growth/no growth was visually inspected. […]

human liver microsomes = assay: Microsomal stability assay; format: in vitro ADME; details: for Eh (hepatic extraction ratio): fu = 1, Q = 20.0 mL∙min-1∙kg-1, human; for Clint,micro: human liver microsomes
Experimental: (§1) 4. Microsomal stability assay
(§2) A microsomal stability assay was performed according to an internal standard procedure. Positive control compound diclofenac and three test items were freshly prepared as sub-dilutions in phosphate buffer (100 mM, pH 7.4) at concentrations of 200 µM and 20 µM, respectively. All incubations were conducted in triplicate in glass screw neck vials (1.5 mL, flat bottom, Macherey-Nagel, Düren, Germany) on a Thermomixer C (Eppendorf, Germany) at 37 °C and 1500 rpm. The incubation mixtures contained 270 µL human liver microsomes (HLM, 1.1 mg∙mL -1, UltraPool HLM 150, Corning B.V.
(§3) Life Science, Amsterdam, the Netherlands), 270 µL NADP regeneration mix (1 mM NADP, 5 mM glucose-6-phosphate, 5 units∙mL -1 glucose-6-phosphate dehydrogenase and 5 mM MgCl 2) and 30 µL phosphate buffer to reach a total volume of 570 µL. Negative controls were performed with heat inactivated (80 °C, 30 min) HLM solution. Reactions were initiated by addition of diclofenac or the test item solution (30 µL). Aliquots of 100 µL were taken at 1, 15, 30, 60, and 90 minutes and immediately processed with 100 µL acetonitrile at 4°C to terminate the reactions, and shaken for 2 minutes at 4°C with 1600 rpm. The mixed samples were further centrifuged for 2 minutes at 4 °C with 16.1 krcf. The supernatants were withdrawn and subjected to high resolution mass spectrometry analysis without […]
(§4) Analysis of microsomal stability assay
(§5) Samples were analyzed using a Vanquish Horizon UHPLC system (Thermo Fisher Scientific, Bremen, Germany) coupled to a Thermo Scientific QExactive HF-X Orbitrap mass spectrometer (Thermo Fisher Scientific, Bremen, Germany) using a UPLC column (ACQUITY HSS T3, Waters, 1.8 µm particle size, 2.1 × 50 mm dimensions) equipped with a pre-column (ACQUITY HSS T3 VanGuard Pre-column, Waters, 1.8 µm particle size, 2.1 × 5 mm dimensions). The column temperature was maintained at 25°C, and the samples were kept at 4°C. The UHPLC system was operated at a flow rate of 0.6 mL/min and an injection volume of 5 µL. Mobile phases consisted of 0.1% (v/v) formic acid in water (Eluent A) and 0.1% (v/v) formic acid in acetonitrile (Eluent B). Chromatographic separation was obtained as follows:
(§6) 0 to 4 min: a linear from 5 to 98% of Eluent B; 4 to 6.5 min: isocratic at 98% B; 6.5 to 7 min: linear from 98 to 5% B; 7 to 9 min: isocratic at 5% B. The high-resolution mass spectra were acquired with electrospray ionization at both positive and negative modes. A scan range of m/z 120 to 1800 was chosen, and the maximum injection time was set to 200 ms. Ion source parameters were: spray voltage 3.5 kV, capillary temperature 320°C, RF level 40, sheath gas pressure 50 (N 2 > 95%), auxiliary gas 10 (N2 > 95%), auxiliary gas heater temperature 300°C. The value for the automatic gain control (AGC) target was set to 10 6, resolution was 60000, and chromatographic peak width (FWHM) was 15 s.
(§7) Calculation of the results from microsomal stability assay
(§8) Elimination rate constant (k) = (- gradient)
(§9) Half-life (t ) (min) = ௟௡
(§10) V (µL∙mg -1) = ௩௢௟௨௠௘ ௢௙ ௜௡௖௨௕௔௧௜௢௡ (µ௅) […]
(§11) Intrinsic clearance in liver microsomes (Cl ) (µL∙min∙mL -1protein) = ௏ × ௟௡ଶ […]
(§12) Intrinsic clearance (Cl ) (mL∙min -1∙kg -1) = ௟௡ × ௏ × ௠௚ ௠௜௖௥௢௦௢௠௔௟ ௣௥௢௧௘௜௡ × ௚ ௟௜௩௘௥ int ௧భ/మ ଵ଴଴଴ ௚ ௟௜௩௘௥ ௪௘௜௚௛௧ ௞௚ ௕௢ௗ௬ ௪௘௜௚௛௧
(§13) (52.5 mg protein∙ g -1 liver used for human; 22.0 g∙ kg -1 liver to body weight used for human) Hepatic extraction ratio (E ) = ୤౫ × େ୪౟౤౪
(§14) (fu: fraction of drug unbound in plasma, f u = 1 used for the calculation; Q: hepatic blood flow, 20.0 mL∙min-1∙kg -1 for human).

[2] = Microsomal stability assay; format: in vitro ADME, human; details: pH 7.4; for CLint scaled at 1 µM: liver microsomes, scaled: 52.5 mg protein/g liver, 22.0 g liver/kg, human; for half-life at 1 µM: human liver microsomes, 37 °C
Experimental: as §1, §2, §3, §4, §5, §6, §7, §8, §9, §10, §11, §12, §13, §14

Row | SMILES | MIC [1] | Eh (hepatic extraction ratio) (human liver microsomes) | Clint,micro (human liver microsomes) | CLint scaled at 1 µM [2] | half-life at 1 µM [2]
1 | COC(=O)c1cc([N+](=O)[O-])c2sc(N3CCC4(CC3)OC[C@H](C)O4)nc(=O)c2c1 [Compound 6a] | 3.7 µM (≈ 1.56 µg/mL) | 94.8% | 314.7 µl.min-1-mg-1 protein | 363 mL/min/kg | 0.0742 h
2 | CC(C)OC(=O)c1cc([N+](=O)[O-])c2sc(N3CCC4(CC3)OC[C@H](C)O4)nc(=O)c2c1 [Compound 6c] | 6.94 µM (≈ 3.12 µg/mL) | 75.3% | 52.9 µl.min-1-mg-1 protein | 61.1 mL/min/kg | 0.441 h
3 | C[C@H]1COC2(CCN(c3nc(=O)c4cc(C(=O)N(C)C)cc([N+](=O)[O-])c4s3)CC2)O1 [Compound 7c] | 230 µM (≈ 100 µg/mL) | 13% | 2.6 µl.min-1-mg-1 protein | 3 mL/min/kg | 8.89 h
4 | CON(C)C(=O)c1cc([N+](=O)[O-])c2sc(N3CCC4(CC3)OC[C@H](C)O4)nc(=O)c2c1 [Compound 7f] | 111 µM (≈ 50 µg/mL) | 35.5% | 9.5 µl.min-1-mg-1 protein | 11 mL/min/kg | 2.46 h
5 | C[C@H]1COC2(CCN(c3nc(=O)c4cc(C(=O)O)cc([N+](=O)[O-])c4s3)CC2)O1 [Compound 8] | 15.3 µM (≈ 6.23 µg/mL) | – | – | – | –
6 | C[C@H]1COC2(CCN(c3nc(=O)c4cc(C#N)cc([N+](=O)[O-])c4s3)CC2)O1 [Compound 9] | 0.13 µM (≈ 0.0505 µg/mL) | 43.5% | 13.3 µl.min-1-mg-1 protein | 15.4 mL/min/kg | 1.75 h
7 | C[C@H]1COC2(CCN(c3nc(=O)c4cc(I)cc([N+](=O)[O-])c4s3)CC2)O1 [Compound 10] | 0.1 µM (≈ 0.0489 µg/mL) | 48.8% | 16.1 µl.min-1-mg-1 protein | 19.1 mL/min/kg | 1.41 h
8 | C[C@H]1COC2(CCN(c3nc(=O)c4cc(Br)cc([N+](=O)[O-])c4s3)CC2)O1 [Compound 11] | 0.057 µM (≈ 0.0252 µg/mL) | 47.9% | 16 µl.min-1-mg-1 protein | 18.4 mL/min/kg | 1.46 h
9 | C[C@H]1COC2(CCN(c3nc(=O)c4cccc([N+](=O)[O-])c4s3)CC2)O1 [Compound 23] | 8.59 µM (≈ 3.12 µg/mL) | 22.5% | 5.1 µl.min-1-mg-1 protein | 5.8 mL/min/kg | 4.62 h
